# Experimental data reported in patent US6207411A, “Bacteriocins” (priority 1995, dated 2001).
# Tests used:
# DPC3147 = assay: MIC of pure nisin; type: cell-based, Lactococcus lactis; details: pure nisin against strain DPC3147
# From the text: (§1) As expected, catalase had no effect on the antimicrobial activity of the 3147 bacteriocin thus eliminating the possibility that the antimicrobial activity may be due to hydrogen peroxide. In addition, none of the strains producing lacticin 3147 were capable of fermenting sucrose. This provides additional evidence that this bacteriocin is not nisin, since the genes encoding nisin (nis A) is linked to genes responsible for sucrose catabolism on the nisin-sucrosetransposon. Tn5276 (Horn et. al., 1991). Thus, all those Nip^+ (nisin-producing) strains studied to date are in addition Suc^+ (Sucrose-fermenting).
# NCDO496 = assay: MIC of pure nisin; type: cell-based, Lactococcus lactis; details: pure nisin against strain NCDO496
# From the text: as §1
# [1] = system: four cariogenic streptococci; assay: Sensitivity of oral streptococci; type: cell-based; details: four cariogenic strains from infected patients
# Procedure: Four cariogenic streptococcal strains isolated from infected patients were grown overnight at 30° C. in Brain Heart Infusion broth. These strains were obtained from Dr. Ger Fitzgerald, University College Cork. The relative sensitivity of each of these strains to the bacteriocin was then determined in comparison to L. lactis HP.
# [2] = system: L. lactis subsp. lactis MG1614; assay: Spontaneous resistance on media containing lacticin 3147; type: cell-based, Lactococcus lactis; details: MG1614 plated up to 10^8 -10^9 CFU/ml
# Procedure: Plates containing bacteriocin were prepared as follows. A cell-free, sterile bacteriocin solution was obtained from an overnight culture of L. lactis DPC3147 grown in GM17 by first centrifuging at 8000 g (Sorvall RC-5B) for 10 min. The resulting supernatant was then sterilized by filtering with Millipore HVLP filters (0.45 um) and tempered to 45° C. An equal volume was then added to double strength GM17 and the plates were poured. Where needed, streptomycin was added to agar at a concentration of 500 μg/ml.
# During initial genetic work with lacticin 3147, it was observed that the bacteriocin-producing property was an easily lost trait. Preliminary experiments were attempted to establish if bacteriocin production by DPC3147 was encoded on a conjugally transmissable piece of DNA. These conjugal matings involved using DPC3147 as the donor strain and the plasmid-free strain, L. lactis subsp. lactis MG1614, which is streptomycin resistant as the recipient. The selection of transconjugants from such matings was achieved using the plasmid-encoded bacteriocin immunity/resistance determinants as a selectable marker. This involved the incorporation of lacticin 3147 into the selective media. […] The incorporation of lacticin 3147 into selective media may thus form the basis for a novel food-grade marker system for use in genetic manipulation of lactococci. […]
# Pepsin = assay: Protease sensitivity assay; details: enzyme 50 mg/ml in 0.02N HCl
# Procedure: (§2) The following enzymes were dissolved in sterile distilled H2 O (SDW) to a final concentration of 50 mg/ml: Trypsin (type II, Sigma Chemical Co., Poole, Dorset, England), alpha-chymotrypsin (type II, Sigma), Proteinase K (Sigma), Pronase E (type XIV, Sigma), Catalase (Sigma). Pepsin was dissolved in 0.02N HCl, also to a final concentration of 50 mg/ml. All enzyme solutions were filter sterilised using disposable filters (Rotrand/Red rim 0.2 μm, Schleicher & Schuell). 20 μl aliquots of filtered cell-free bacteriocin solution and 20 μl of each enzyme solution were spotted 1 cm apart on GM17 agar plates and dried for 30 min. All plates were incubated overnight at 30° C. The plates move subsequently overlaid with the indicator organism. […] was evident as a zone of inhibition. Controls included plates with spots of either bacteriocin solution or enzyme solution.
# L. lactis AM2 = assay: Bacteriocin assayed directly in cheese samples; parameters: species or system Lactococcus lactis
# Procedure: Bacteriocin activity was assayed from cheese samples as follows. Cheese samples were initially macerated in equal volumes of distilled water in a stomacher (Lab-Blender 400) for 15 min and heated to 80° C. for 10 min. Then aliquots of 50 μl were dispensed in wells and bacteriocin activity calculated as the difference in area of the zone of inhibition (in mm2) and the area of the well (as outlined previously).
# Since then we have assayed the bacteriocin in these cheeses. In Cheese trial 1 the presence of lacticin 3147 in take test cheese was confirmed (using L. lactis AM2 as the indicator strain) at a level of approximately 1.280 AU/ml which remained constant in the cheese over the 28-week ripening period (FIG. 13A). In contrast, no anti-microbial activity was detected in the control cheese. Similarly, the amount of bacteriocin detected in cheese trial 2 was approximately 1.280 AU/ml which also remained constant over the ripening period (FIG. 13B). Thus the level of bacteriocin observed in the cheese corresponds to the number of NSLABs which occur in the cheese during ripening.
# [3] = type: physicochemical; details: pH 9, up to 100° C., 10 minutes; 100% = unheated at that pH
# Procedure: FIG. 6. Effect of heating at 60° C. to 121° C. for 10 minutes on the stability of lacticin 3147 at pH5, pH7, pH9. 100% activity is the activity at pH 5, 7 and 9 with no heating.
# A cell-free bacteriocin was exposed to various pH/temperature treatments. Samples were heated to 60, 70, 80, 90, 100, 110 and 121° C. at pH5, pH7 and pH9 for 10 min. Following treatment, all solutions were rapidly cooled and bacteriocin activity was assayed by the well diffusion method.
# Three samples of bacteriocin were brought to a pH of 5, 7 and 9 and aliquots of each were subsequently heated to 60° C., 70° C., 80° C., 90° C., 100° C., 110° C. and 121° C. for 10 minutes. The activity at each pH prior to heat treatment was measured and was taken to be 100% for that pH value. From the graphical representation in FIG. 6, it can be seen that lacticin 3147 is heat-stable, particularly at an acid pH.
# [4] = Bacteriocin activity in teat seals; details: teat seal without Tween 20 or 80 (2% required)
# Procedure: FIG. 14A. Antimicrobial effectiveness of lacticin 3147 requires the presence of Tween Au/ml) has been added.
# TY (Tryptone 2.5 g/L, Yeast Extract 5 g/L, Glucose 10 g/L, b-glycerophosphate 19 g/L, MgSO4.7H2O 0.25 g/L, MnSO4.4H2O 0.05 g/L, pH 6.75) broth was prefiltered (15 filter/liter) with HA (Millipore) filters to remove proteins in the media which would bind to the filters. L. lactis DPC 3147 was then grown overnight in the filtered TY-broth. The culture was centrifuged at 10,000 rpm for 15 minutes and then filtered through HVLP filters (Millipore). The bacteriocin was then bound to HA filters (8 filters/liter) and subsequently harvested from the filters using acetone/5 mM Phosphate-Buffer, pH 7.0 (2:1). The mix was subsequently centrifuged and the acetone removed by evaporation. The resultant bacteriocin preparation was freeze-dried and dissolved in sterile distilled water. This was then assayed as above. To add bacteriocin into the teat seal 17,000 units of the bacteriocin prepared as above was added to the seal in a sterile petri disc. On mixing, the bacteriocin and seal formed as emulsion which was then aseptically transferred to a syringe (Cross Vetpharm).
# [5] = system: Streptococcus dysgalactiae M; assay: Frequency of resistance development of a mastitic strain; type: cell-based; details: prolonged exposure
# From the text: As a result of the growing concern over the use of antibiotics for the treatment and prevention of disease in animals the potential of using lacticin 3147 in the prevention of bovine mastitis was investigated. To achieve this the bacteriocin was incorporated into teat seals preparations. These seals are manufactured by Cross Vetpharm (Broomhill Road, Tallaght, Dublin 24. Ireland) and act as a physical barrier in the cow against infection. The bacteriocin provides an additional anti-microbial barrier over the physical one provided by the seal itself. Incorporation of the bacteriocin into the teat seals first required the preparation of the bacteriocin in a highly concentrated and semi-purified form. The anti-microbial effectiveness of lacticin 3147 in the environment of the seal required the addition of either Tween 20 or 80 in concentrations of 2% (FIG. 14A). […] Having successfully prepared effective bacteriocin-containing teat seals a number of animal trials were then performed. These involved exposure of the modified seals to the animal for different time periods after which the seals were removed. […] Other aspects of this study focused on the frequency at which a mastitic strain can develop resistance to lacticin 3147 since this could limit its practical usefulness as an effective antimicrobial under certain conditions. […]
# [6] = system: Streptococcus dysgalactiae M; assay: Effectiveness on Streptococcus dysgalactiae M (plate counts); type: cell-based; details: 10.240 AU/ml, stationary phase cells, 2 hours, 37° C.
# Procedure: FIG. 14B. Effect of adding lacticin 3147 (10.240 AU/ml) to stationary cells of Streptococcus dysgalactiae.
# 10 μl from a overnight culture was added to 490 μl of sterile 50 mM phosphate-buffer. pH 7.0 500 μl lacticin 3147 (10,000 AU/ml) was then added and plate counts were carried out after 0, 15, 30, 60, 90 and 120 minutes at 37° C. to assess cell viability.
# Proteinase K = molecular target: T1, Proteinase K (Parengyodontium album, UniProt P06873); assay: Protease sensitivity assay; details: enzyme 50 mg/ml spotted beside bacteriocin; indicator L. lactis HP
# T1 construct: purchased Sigma
# Procedure: (§3) FIGS. 2A, 2B, 2C, 2D, and 2E. Protease Sensitivity Assay. Filtered cell-free bacteriocin solution and enzyme solution (A represents control, no enzyme; B, alpha-chymotrypsin; C, trypsin; D, pronase E and E represents proteinase K) were spotted 1 cm apart on GM17 agar plates and subsequently overlaid with the indicator L. lactis strain HP.
# as §2
# Pronase E = assay: Protease sensitivity assay; details: enzyme 50 mg/ml spotted beside bacteriocin; indicator L. lactis HP
# Procedure: as §3, §2
# Trypsin = molecular target: T2, Trypsin (Sus scrofa, UniProt P00761); assay: Protease sensitivity assay; details: enzyme 50 mg/ml spotted beside bacteriocin; indicator L. lactis HP
# T2 construct: purchased Sigma Chemical Co., Poole, Dorset, England type II
# Procedure: as §3, §2
# alpha-chymotrypsin = molecular target: T3, alpha-chymotrypsin (Bos taurus, UniProt P00766, DEL14-15/DEL147-148); assay: Protease sensitivity assay; details: enzyme 50 mg/ml spotted beside bacteriocin; indicator L. lactis HP
# T3 construct: purchased Sigma type II
# Procedure: as §3, §2
# Catalase = assay: Protease sensitivity assay (catalase); details: enzyme 50 mg/ml
# Procedure: as §2
# T2 sequence (P00761 9-231): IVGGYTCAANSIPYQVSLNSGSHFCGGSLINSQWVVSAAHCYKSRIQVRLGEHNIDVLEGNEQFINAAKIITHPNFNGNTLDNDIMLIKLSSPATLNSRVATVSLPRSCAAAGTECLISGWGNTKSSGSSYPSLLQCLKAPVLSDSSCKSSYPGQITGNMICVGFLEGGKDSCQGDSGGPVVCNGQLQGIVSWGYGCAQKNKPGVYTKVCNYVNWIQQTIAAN
# T1 sequence (P06873 106-384): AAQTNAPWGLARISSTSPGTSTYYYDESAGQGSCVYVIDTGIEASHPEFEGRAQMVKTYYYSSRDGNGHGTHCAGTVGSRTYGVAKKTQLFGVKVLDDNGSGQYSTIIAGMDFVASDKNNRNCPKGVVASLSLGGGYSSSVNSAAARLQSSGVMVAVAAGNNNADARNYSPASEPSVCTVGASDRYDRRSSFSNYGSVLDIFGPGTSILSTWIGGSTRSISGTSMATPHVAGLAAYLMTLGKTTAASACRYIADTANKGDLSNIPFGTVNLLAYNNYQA
Substance,minimum concentrations (MIC) required for inhibition (DPC3147) [µg/mL],minimum concentrations (MIC) required for inhibition (NCDO496) [µg/mL],Sensitivity relative to L. lactis HP [1] [%],Growth of sensitive cells on media containing lacticin 3147 [2],Sensitivity to pepsin (Pepsin),"Level of bacteriocin in cheese (L. lactis AM2; cheese trial 1, constant over the 28-week ripening period)","Level of bacteriocin in cheese (L. lactis AM2; cheese trial 2, constant over the ripening period)",Activity maintained after heating [3],Bacteriocin activity in treated seals [4],Bacterial cells that developed increased tolerance [5] [%],Kill [6] [%],Sensitivity to proteinase K (Proteinase K),Sensitivity to pronase E (Pronase E),Sensitivity to trypsin (Trypsin),Sensitivity to alpha-chymotrypsin (alpha-chymotrypsin),Effect of catalase on antimicrobial activity (Catalase)
nisin,100,400,–,–,–,–,–,–,–,–,–,–,–,–,–,–
lacticin 3147,–,–,12.5,failed to grow,not to pepsin,approximately 1.280 AU/ml,approximately 1.280 AU/ml,more than 50%,negligible bacteriocin activity,0.003,99.99,sensitive,sensitive,sensitive,sensitive,no effect
